What was measured:
[1] = tested on: Staphylococcus aureus; assay: Antibacterial activity against Staphylococcus aureus at 19 ug/disk by standard filter disk assay; format: functional; conditions: read-out: IZ
[2] = tested on: Artemia salina; assay: Toxicity against Artemia salina; format: organism-based; conditions: in vivo

| Compound | zone of inhibition at 19 µg/disc [1] [mm] | LC50 [2] [ppm] |
| --- | --- | --- |
| COc1c(C=O)cc(OC)c2c(OC)c3ccccc3cc12 | 12 | > 280 |
| COCc1c(OC)cc2c(c1OC)C(=O)c1ccccc1C2=O | – | > 280 |

Reference: ChEMBL document CHEMBL1146548, “New anthracene derivatives from Coussarea macrophylla” (J Nat Prod, 2003)
